# Read-outs that look alike come from different tables or passages of the source.
# Legend:
# [1] = tested on: M. bovis BCG ML1034 mutant (bcg0231/rv0194 overexpressed); type: cell-based
# [2] = tested on: M. smegmatis overexpressing the rv0194 gene of M. tuberculosis (SMR5/pML655); test: microbe, parasite or virus in culture; type: cell-based; settings: for MIC: Mycolicibacterium smegmatis
# [3] = tested on: M. tuberculosis mctB mutant ML256 (Δrv1698); type: cell-based
# [4] = tested on: Mtb mctB mutant ML256; parameters: species or system mice; settings: mouse, in vivo
# [5] = tested on: M. bovis BCG transposon mutants; type: cell-based
# [6] = read-out: MIC rv0194 overexpression
structure (smiles),measurement,setting,value
O=C(N[C@H](CO)[C@H](O)c1ccc([N+](=O)[O-])cc1)C(Cl)Cl [Chloramphenicol],MIC ML1034,[1],0.512 mg/mL
same,Resistance Factor,[1],64
same,Resistance Factor,[2],1
same,MIC,[2]; [6],0.032 mg/mL
O=S(=O)([O-])[O-].[Cu+2] [CuSO4],growth rate on plates with CuSO4,[3],severely reduced the growth rate
same,effect of dietary CuSO4 on persistence of the mctB mutant in lungs,[4],aggravated the persistence defect
CC1(C)S[C@@H]2[C@H](NC(=O)[C@H](N)c3ccccc3)C(=O)N2[C@H]1C(=O)O [Ampicillin],MIC of amp.,[1],2000 mg/mL
same,Resistance Factor,[1],32
same,"MIC of ampicillin, completely resistant mutants",[5],"≥ 2,000 μg/ml"
same,"MIC of ampicillin, mutants excluded from further analysis",[5],lower than 250 μg/ml
same,MICs of ampicillin for all transposon mutants,[5],higher than 62.5 μg/ml
same,Resistance Factor,[2],2
same,MIC,[2]; [6],0.25 mg/mL
CC[n+]1c(-c2ccccc2)c2cc(N)ccc2c2ccc(N)cc21 [ethidium bromide],MIC,[2]; read-out: MIC of ethidium bromide,0.0025 mg/mL
CN(C)[C@@H]1C(=O)C(C(N)=O)=C(O)[C@@]2(O)C(=O)C3=C(O)c4c(O)cccc4[C@@](C)(O)[C@H]3C[C@@H]12 [Tetracyclin],MIC ML1034,[1],>0.016 mg/mL
same,MIC rv0194 overexpression,[2],0.0003 mg/mL
same,Resistance Factor,[2],1
Cc1cc(-c2ccc(S(=O)(=O)O)cc2)c2ccc3c(-c4ccc(S(=O)(=O)O)cc4)cc(C)nc3c2n1 [Bathocuproine disulfonate],protection from the toxic effects of CuSO4,[3],protects Mtb from the toxic effects of CuSO4
CC[C@H]1OC(=O)[C@H](C)[C@@H](O[C@H]2C[C@@](C)(OC)[C@@H](O)[C@H](C)O2)[C@H](C)[C@@H](O[C@@H]2O[C@H](C)C[C@H](N(C)C)[C@H]2O)[C@](C)(O)C[C@@H](C)C(=O)[C@H](C)[C@@H](O)[C@]1(C)O [Erythromycin],Resistance Factor,[2],4
same,MIC,[2]; [6],0.01 mg/mL
CO[C@@H]1[C@@H](OC(N)=O)[C@@H](O)[C@H](Oc2ccc3c(O)c(NC(=O)c4ccc(O)c(CC=C(C)C)c4)c(=O)oc3c2C)OC1(C)C [Novobiocin],Resistance Factor,[2],2
same,MIC,[2]; [6],0.008 mg/mL
CN[C@H](CC(C)C)C(=O)N[C@H]1C(=O)N[C@@H](CC(N)=O)C(=O)N[C@H]2C(=O)N[C@H]3C(=O)N[C@H](C(=O)N[C@H](C(=O)O)c4cc(O)cc(O)c4-c4cc3ccc4O)[C@H](O)c3ccc(c(Cl)c3)Oc3cc2cc(c3O[C@@H]2O[C@H](CO)[C@@H](O)[C@H](O)[C@H]2O[C@H]2C[C@](C)(N)[C@H](O)[C@H](C)O2)Oc2ccc(cc2Cl)[C@H]1O [Vancomycin],MIC ML1034,[1],0.02 mg/mL
same,Resistance Factor,[2],2
same,MIC,[2]; [6],0.0025 mg/mL
[H]/N=C(/N)N[C@H]1[C@H](O)[C@@H](O)[C@H](O[C@@H]2O[C@@H](C)[C@](O)(C=O)[C@H]2O[C@@H]2O[C@@H](CO)[C@H](O)[C@@H](O)[C@@H]2NC)[C@@H](N/C(N)=N\[H])[C@@H]1O [Streptomycin],MIC ML1034,[1],0.016 mg/mL
same,Resistance Factor,[1],32

# Reference: US20110160123A1, “TARGETING THE EFFLUX SYSTEMS OF MYCOBACTERIUM TUBERCULOSIS” (THE UAB RESEARCH FOUNDATION, priority 2008, published 2011)
